Measured values: the Kinase Knowledgebase extract (Sharma et al. 2016)

Experiments:
[1] = target: EGFR (human) (UniProt P00533); test: Enzyme Assay
[2] = target: EGFR (human), P00533 [L858R]; test: Enzyme Assay
[3] = target: EGFR (human), P00533 [L861Q]; test: Enzyme Assay
[4] = target: EGFR (human), P00533 [L858R]; test: Cell-Based Assay; details: ba/f3

Sequence of EGFR (human) (P00533 whole entry, looked up): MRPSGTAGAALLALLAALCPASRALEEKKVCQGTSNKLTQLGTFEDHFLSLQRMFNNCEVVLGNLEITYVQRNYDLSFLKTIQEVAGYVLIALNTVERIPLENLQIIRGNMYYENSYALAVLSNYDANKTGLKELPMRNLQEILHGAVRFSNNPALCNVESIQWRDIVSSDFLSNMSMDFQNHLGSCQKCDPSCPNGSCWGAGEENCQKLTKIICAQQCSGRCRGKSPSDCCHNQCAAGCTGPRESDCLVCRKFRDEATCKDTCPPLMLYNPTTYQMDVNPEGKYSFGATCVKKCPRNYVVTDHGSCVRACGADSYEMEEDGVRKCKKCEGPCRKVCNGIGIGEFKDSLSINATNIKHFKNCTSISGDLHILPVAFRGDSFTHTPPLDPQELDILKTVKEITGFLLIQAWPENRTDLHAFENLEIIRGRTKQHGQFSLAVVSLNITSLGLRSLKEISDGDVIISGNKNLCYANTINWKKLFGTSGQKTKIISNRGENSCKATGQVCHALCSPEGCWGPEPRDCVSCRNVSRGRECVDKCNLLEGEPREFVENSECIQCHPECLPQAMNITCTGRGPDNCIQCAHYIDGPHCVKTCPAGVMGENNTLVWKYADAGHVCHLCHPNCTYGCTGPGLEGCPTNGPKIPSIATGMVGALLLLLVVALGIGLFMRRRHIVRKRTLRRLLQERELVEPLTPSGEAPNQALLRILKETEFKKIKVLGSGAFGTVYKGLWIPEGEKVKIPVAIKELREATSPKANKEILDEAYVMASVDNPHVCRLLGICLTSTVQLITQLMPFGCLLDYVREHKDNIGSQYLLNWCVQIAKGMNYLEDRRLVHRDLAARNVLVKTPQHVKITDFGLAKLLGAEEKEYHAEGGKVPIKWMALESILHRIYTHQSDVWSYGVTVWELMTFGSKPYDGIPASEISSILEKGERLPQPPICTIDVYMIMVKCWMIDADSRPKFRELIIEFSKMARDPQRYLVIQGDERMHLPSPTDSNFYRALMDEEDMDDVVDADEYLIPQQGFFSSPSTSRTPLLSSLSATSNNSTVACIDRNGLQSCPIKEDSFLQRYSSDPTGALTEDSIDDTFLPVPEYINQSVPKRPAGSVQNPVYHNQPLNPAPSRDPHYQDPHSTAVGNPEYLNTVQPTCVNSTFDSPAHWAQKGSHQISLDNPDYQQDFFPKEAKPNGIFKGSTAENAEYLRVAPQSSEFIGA
Sequence of EGFR (human), P00533 [L858R] (P00533 whole entry L858R, looked up): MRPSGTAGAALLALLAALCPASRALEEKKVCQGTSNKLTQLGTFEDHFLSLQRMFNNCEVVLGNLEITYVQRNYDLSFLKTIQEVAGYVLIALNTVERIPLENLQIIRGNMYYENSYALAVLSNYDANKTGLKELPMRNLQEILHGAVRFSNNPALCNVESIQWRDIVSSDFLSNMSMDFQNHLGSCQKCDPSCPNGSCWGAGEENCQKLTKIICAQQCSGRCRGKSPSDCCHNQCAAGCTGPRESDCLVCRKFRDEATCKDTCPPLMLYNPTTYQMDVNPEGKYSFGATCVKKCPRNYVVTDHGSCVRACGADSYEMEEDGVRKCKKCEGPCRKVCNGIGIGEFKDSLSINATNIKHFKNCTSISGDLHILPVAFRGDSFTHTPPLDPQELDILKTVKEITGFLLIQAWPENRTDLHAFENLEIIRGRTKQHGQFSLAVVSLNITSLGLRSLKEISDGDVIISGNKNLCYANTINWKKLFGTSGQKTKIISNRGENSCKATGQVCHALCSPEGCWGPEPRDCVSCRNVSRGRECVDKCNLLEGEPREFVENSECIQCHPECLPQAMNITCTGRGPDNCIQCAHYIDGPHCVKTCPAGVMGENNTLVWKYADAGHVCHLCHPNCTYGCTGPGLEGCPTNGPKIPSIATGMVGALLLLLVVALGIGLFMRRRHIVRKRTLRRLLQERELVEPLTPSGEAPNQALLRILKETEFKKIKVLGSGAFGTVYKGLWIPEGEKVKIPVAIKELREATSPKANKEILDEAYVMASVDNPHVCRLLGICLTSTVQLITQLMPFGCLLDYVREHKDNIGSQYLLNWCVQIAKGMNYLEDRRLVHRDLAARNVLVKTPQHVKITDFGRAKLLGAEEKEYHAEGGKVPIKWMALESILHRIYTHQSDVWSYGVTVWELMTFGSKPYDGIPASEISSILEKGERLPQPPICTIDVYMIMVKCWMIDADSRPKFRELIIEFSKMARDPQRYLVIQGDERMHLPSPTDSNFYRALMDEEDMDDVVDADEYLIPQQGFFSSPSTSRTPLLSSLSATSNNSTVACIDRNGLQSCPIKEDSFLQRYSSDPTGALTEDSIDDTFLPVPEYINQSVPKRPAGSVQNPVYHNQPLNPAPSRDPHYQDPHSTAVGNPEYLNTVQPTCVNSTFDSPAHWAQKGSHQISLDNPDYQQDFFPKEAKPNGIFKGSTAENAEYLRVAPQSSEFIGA
Sequence of EGFR (human), P00533 [L861Q] (P00533 whole entry L861Q, looked up): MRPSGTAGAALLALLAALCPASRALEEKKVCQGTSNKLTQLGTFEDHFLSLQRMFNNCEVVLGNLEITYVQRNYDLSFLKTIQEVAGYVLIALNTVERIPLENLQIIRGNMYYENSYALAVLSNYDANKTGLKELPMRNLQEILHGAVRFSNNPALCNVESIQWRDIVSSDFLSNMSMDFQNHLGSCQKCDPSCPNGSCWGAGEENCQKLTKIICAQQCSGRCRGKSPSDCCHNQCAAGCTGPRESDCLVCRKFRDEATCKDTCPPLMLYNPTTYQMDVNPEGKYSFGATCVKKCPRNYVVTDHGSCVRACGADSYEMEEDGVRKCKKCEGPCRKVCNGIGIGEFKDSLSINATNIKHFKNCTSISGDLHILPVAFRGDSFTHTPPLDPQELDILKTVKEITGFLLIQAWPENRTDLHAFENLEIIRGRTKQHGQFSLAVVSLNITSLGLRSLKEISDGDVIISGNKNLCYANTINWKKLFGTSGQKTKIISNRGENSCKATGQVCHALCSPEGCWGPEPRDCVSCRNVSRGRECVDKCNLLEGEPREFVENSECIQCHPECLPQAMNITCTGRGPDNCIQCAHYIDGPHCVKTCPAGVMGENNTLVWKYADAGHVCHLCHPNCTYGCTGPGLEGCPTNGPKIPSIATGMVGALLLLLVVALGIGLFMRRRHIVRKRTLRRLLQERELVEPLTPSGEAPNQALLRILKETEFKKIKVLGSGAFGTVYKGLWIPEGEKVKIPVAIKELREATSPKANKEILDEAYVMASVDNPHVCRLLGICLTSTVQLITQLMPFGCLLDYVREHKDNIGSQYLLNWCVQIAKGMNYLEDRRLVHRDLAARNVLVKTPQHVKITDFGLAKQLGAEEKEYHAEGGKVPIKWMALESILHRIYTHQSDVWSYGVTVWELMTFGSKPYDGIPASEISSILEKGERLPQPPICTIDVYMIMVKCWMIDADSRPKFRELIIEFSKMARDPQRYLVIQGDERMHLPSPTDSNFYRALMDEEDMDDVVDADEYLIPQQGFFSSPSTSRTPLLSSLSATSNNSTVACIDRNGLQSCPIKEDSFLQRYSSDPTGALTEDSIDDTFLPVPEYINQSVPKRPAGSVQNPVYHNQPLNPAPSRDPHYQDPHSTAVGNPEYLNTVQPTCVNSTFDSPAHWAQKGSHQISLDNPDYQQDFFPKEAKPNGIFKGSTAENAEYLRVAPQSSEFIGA

Structure (SMILES)	IC50 [1]	IC50 [2]	IC50 [3]	IC50 [4]
COc1cc(F)ccc1-c1cc2c(N[C@H](C)c3ccccc3)ncnc2s1	6.3 nM	–	–	–
COc1ccc(-c2cc3c(N[C@H](C)c4ccccc4)ncnc3s2)cc1	54 nM	–	–	–
C[C@@H](Nc1ncnc2sc(-c3ccccc3CO)cc12)c1ccccc1	38 nM	–	–	–
COc1cc(C=O)ccc1-c1cc2c(N[C@H](CO)c3ccccc3)ncnc2s1	0.8 nM	0.9 nM	0.8 nM	–
COc1ccc(-c2cc3c(N[C@H](C)c4ccccc4)ncnc3s2)c(OC)c1	5 nM	–	–	–
Oc1ccccc1-c1cc2c(NCc3ccccc3)ncnc2s1	29 nM	–	–	–
C[C@@H](Nc1ncnc2sc(-c3ccccc3O)cc12)c1ccccc1	35 nM	–	–	–
COc1cc(C=O)ccc1-c1cc2c(NCc3ccccc3)ncnc2s1	6.3 nM	–	–	–
COc1ccccc1-c1cc2c(N[C@H](CO)c3ccccc3)ncnc2[nH]1	0.5 nM	0.1 nM	0.2 nM	134 nM
COc1ccccc1-c1cc2c(N[C@H](C)c3ccccc3)ncnc2s1	6.7 nM	7.71 nM	9.06 nM	–
C[C@@H](Nc1ncnc2sc(-c3ccc(O)cc3)cc12)c1ccccc1	84 nM	–	–	–
COc1c(CO)cccc1-c1cc2c(N[C@H](C)c3ccccc3)ncnc2s1	1.6 nM	–	–	–
C[C@@H](Nc1ncnc2sc(-c3cccc(O)c3)cc12)c1ccccc1	45 nM	–	–	–
OC[C@@H](Nc1ncnc2oc(-c3ccc(O)cc3)cc12)c1ccccc1	2 nM	–	–	–
COc1cc(CO)ccc1-c1cc2c(N[C@H](CO)c3ccccc3)ncnc2s1	0.3 nM	0.3 nM	0.3 nM	–
CC[C@@H](Nc1ncnc2sc(-c3ccccc3O)cc12)c1ccccc1	33 nM	–	–	–
COc1cc(C=O)ccc1-c1cc2c(N[C@H](C)c3ccccc3)ncnc2s1	3 nM	4.3 nM	3.9 nM	–
OC[C@@H](Nc1ncnc2sc(-c3ccccc3O)cc12)c1ccccc1	3.4 nM	–	–	–
OC[C@@H](Nc1ncnc2[nH]c(-c3ccccc3)cc12)c1ccccc1	0.7 nM	1.3 nM	1 nM	127 nM
COC[C@@H](Nc1ncnc2[nH]c(-c3ccccc3)cc12)c1ccccc1	1.8 nM	–	–	–
COc1ccc(C=O)cc1-c1cc2c(N[C@H](C)c3ccccc3)ncnc2s1	2.6 nM	–	–	–
Cc1ccc(-c2cc3c(N[C@H](C)c4ccccc4)ncnc3s2)cc1	105 nM	–	–	–
COc1cc(CO)ccc1-c1cc2c(NCc3ccccc3)ncnc2[nH]1	0.5 nM	0.8 nM	0.4 nM	–
COc1cc(CO)ccc1-c1cc2c(N[C@H](C)c3ccccc3)ncnc2s1	0.6 nM	0.7 nM	0.6 nM	–

Structure (SMILES)	IC50 [1]	IC50 [2]	IC50 [3]	IC50 [4]
COc1cc(CO)ccc1-c1cc2c(N[C@H](CO)c3ccc(F)cc3)ncnc2[nH]1	0.3 nM	0.6 nM	0.5 nM	83 nM
C[C@@H](Nc1ncnc2sc(-c3ccc(CO)cc3)cc12)c1ccccc1	6.6 nM	–	–	–
COc1cc(F)ccc1-c1cc2c(N[C@H](CO)c3ccccc3)ncnc2[nH]1	1 nM	–	–	–
COc1cc(C=O)ccc1-c1cc2c(N[C@H](C)c3ccccc3)ncnc2[nH]1	0.5 nM	–	–	–
Cc1ccccc1-c1cc2c(N[C@H](C)c3ccccc3)ncnc2s1	153 nM	–	–	–
COc1cc(CO)ccc1-c1cc2c(N[C@H](C)c3ccccc3)ncnc2[nH]1	0.2 nM	0.4 nM	0.2 nM	99 nM
OCc1ccc(-c2cc3c(N[C@H](CO)c4ccccc4)ncnc3s2)cc1	2.2 nM	2.3 nM	1.6 nM	–
COc1ccccc1-c1cc2c(N[C@H](CO)c3ccccc3)ncnc2s1	0.9 nM	1.3 nM	1 nM	–
Cc1cccc(-c2cc3c(N[C@H](C)c4ccccc4)ncnc3s2)c1	77 nM	–	–	–
COc1cc(C=O)ccc1-c1cc2c(N[C@H](CO)c3ccc(F)cc3)ncnc2[nH]1	0.6 nM	–	–	–
COc1cccc(OC)c1-c1cc2c(N[C@H](CO)c3ccccc3)ncnc2s1	0.79 nM	–	–	–
COc1ccc(-c2cc3c(N[C@H](CO)c4ccccc4)ncnc3o2)cc1	2.7 nM	–	–	–
COc1cccc(-c2cc3c(N[C@H](C)c4ccccc4)ncnc3s2)c1	37 nM	–	–	–
OCc1ccc(-c2cc3c(N[C@H](CO)c4ccccc4)ncnc3[nH]2)cc1	0.4 nM	0.4 nM	0.2 nM	172 nM
COc1cc(C=O)ccc1-c1cc2c(NCc3ccccc3)ncnc2[nH]1	2.1 nM	–	–	–
C[C@@H](Nc1ncnc2sc(-c3ccccc3)cc12)c1ccccc1	59 nM	–	–	–
COc1cc(CO)ccc1-c1cc2c(Nc3ccccc3)ncnc2s1	3.1 nM	–	–	–
COc1cc(CO)ccc1-c1cc2c(NCc3ccccc3)ncnc2s1	4.8 nM	–	–	–
COc1cc(C=O)ccc1-c1cc2c(Nc3ccccc3)ncnc2s1	20 nM	–	–	–
COc1cccc(OC)c1-c1cc2c(N[C@H](C)c3ccccc3)ncnc2s1	1.1 nM	–	–	–
COc1ccc(CO)cc1-c1cc2c(N[C@H](C)c3ccccc3)ncnc2s1	4.7 nM	–	–	–
COc1cc(C=O)ccc1-c1cc2c(N[C@H](CO)c3ccccc3)ncnc2[nH]1	0.3 nM	–	–	–
C[C@@H](Nc1ncnc2sc(-c3cccc(CO)c3)cc12)c1ccccc1	9.1 nM	–	–	–
